Results as given in article PMC6514996, “Discovery of Potent and Selective Halogen-Substituted Imidazole-Thiosemicarbazides for Inhibition of Toxoplasma gondii Growth In Vitro via Structure-Based Design” (Molecules, 2019).
In brackets after ≈: the same amount, converted by molar mass.

What was measured:
[1] = Lipophilicity by HPLC (logkw extrapolation, OECD guideline); assay type: physicochemical; details: Phenomenex Synergi 4 µm Polar-RP column, methanol:water, calibration with seven standards
Procedure: HPLC experiments were performed using a chromatograph equipped with an Elite LaChrom L-2130 gradient pump, L-2455 DAD detector, L-2300 column oven, and L-2200 autosampler (Hitachi-Merck, Darmstadt, Germany). The tested samples were applied into the Phenomenex Synergi 4 µm Polar-RP chromatographic column (Phenomenex, Torrance, CA, USA) (150 mm length, 4.6 mm i.d.). Mobile phases were degassed using a built-in membrane degasser.
Chromatographic analysis: 5 µL of each sample (0.1% methanolic solutions) was applied into the chromatographic column and chromatograms were developed at a flow rate of 1.0 mL min^−1 in the isocratic mode using various concentrations of methanol in the binary polar mobile phase: methanol:water (40:60, 45:55, 50:50, 55:45, 60:40, 65:35, and 70:30 (v/v)) Chromatograms were detected at 254 nm. All experiments were repeated in triplicate, and the final results were their arithmetic mean. Dead time was measured for uracil (Calbiochem—Merck, Darmstadt, Germany). All the experiments were performed at ambient temperature.
The chromatographic lipophilicity parameter (logkw) for 5–16 was obtained by the extrapolation of the retention parameter logk to pure water, according to the equation: logk = logkw − S × φ(1) where logkw is the value of the retention factor of a substance in pure water, S is the slope of the regression curve, and φ is the concentration (v/v) of methanol in the mobile phase.
Subsequently, logPHPLC parameters for 5–16 were calculated according to OECD guidelines, based on the equation obtained for seven standards with known lipohilicity parameters (logPo/w): logPo/w = 1.0239(± 0.03)·logkw − 0.1541(± 0.08); n = 7; r = 0.9976; se = 0.08; F = 1047.8(2)

[2] = Cytotoxicity against L929 cells, MTT cell viability assay (ISO 10993-5:2009(E)); assay type: cell-based; details: mouse, L929 mouse fibroblast cells; for viability at 24 h, 5 µg/mL / viability at 24 h, 25 µg/mL / viability at 24 h, 50 µg/mL / viability at 24 h, 125 µg/mL / viability at 24 h, 250 µg/mL / viability at 24 h, 500 µg/mL / viability at 24 h, 1000 µg/mL: read-out: viability of L929 cells (% of viable cells); for CC50 at 24 h: 50% cell proliferation inhibition, L929 cells
Excerpt: Since T. gondii is an obligate intracellular parasite that requires invasion of mammalian host cells to proliferate, compounds that inhibit parasite growth might be toxic to host cells as well. Therefore, as an initial indicator for host cell toxicity, we firstly evaluated compounds 5–16 for their ability to inhibit the growth of mouse fibroblast (L929) cells line according to the international standards: ISO 10993-5:2009(E).
To calculate the reduction of viability compared to the untreated blank the equation was used: viability (%) = 100% × sample OD570 (the mean value of the measured optical density of the treated cells)/blank OD570 (the mean value of the measured optical density of the untreated cells). CC50—represents the concentration of tested compounds that was required for a 50% cell proliferation inhibition in vitro. The effect of the tested compounds on the cell lines was measured using MTT assay according to the international standard: ISO 10993-5:2009(E). CC50 values were determined based on the plotted curves using GraphPad Prism program (version 8.0.1).
Cell culture: the L929 mouse fibroblast (ATTC® CCL-1™) was routinely cultured in IMDM (Iscove’s Modified Dulbecco Medium, Biowest, Nuaille, France), supplemented with 10% HIFBS, 100 U/mL penicillin and 100 μg/mL streptomycin. Cells were trypsinized twice a week and seeded at a density of 1 × 10^6 per T25 cell culture flask and incubated for 24–48 h in a 37 °C and 10% CO2 to achieve a confluent monolayer.
Cell viability assay: Assays were performed according to international standards: ISO 10993-5:2009(E), Biological evaluation of medical devices, Part 5: Tests for in vitro cytotoxicity. Cell viability were evaluated using the tetrazolium salt [3-(4,5-dimethylthiazol-2-yl)-2,5-diphenyltetrazolium bromide] (Sigma) and mouse fibroblasts L929 cells. For this assay we used only the culture medium, RPMI 1640, without phenol red (Biowest) supplemented with 10% HIFBS, 2 mM L-glutamine (Sigma), 100 U/mL penicillin, 100 μg/mL streptomycin. Shortly after, a 1 × 10^4/well of L929 cells were placed into 96-well plates and incubated in 37 °C and 10% CO2. Afterwards, an old culture medium was replaced by 100 μL of compounds and drugs dilutions in culture medium and the cells were treated for 24 h. Moreover, cells were treated with a 4.0–0.03% concentration of DMSO and 1M NaOH as a compound and drugs solvent (data not shown). Then, 50 μL of 1 mg/mL of MTT solution in RPMI 1640 without phenol red was added to each well and incubated 2h (37 °C, 10% CO2). Next, cell culture medium was aspirated cautiously and 150 μL of DMSO was added to each well, the plates were gently mixed. Then 25 μL 0.1M glycine buffer (pH = 10.5) (Sigma) was added. The optical density at 570 nm on the ELISA reader (Multiskan EX, Labsystems, Vienna, VA, USA), was read. The results were expressed as a percentage of viability compared to untreated cells. All experiments were performed in triplicate. For comparison reasons, two compounds known from our previous studies (6 and 9) were included in the bioassay performed for compounds 5, 7, 8, 9–16.

[3] = tested on: Toxoplasma gondii RH strain tachyzoites (ATCC PRA 310); experiment: Influence on T. gondii proliferation in Hs27 cells, [3H]-uracil incorporation assay; assay type: cell-based; details: for IC50: Toxoplasma gondii, HS27, 50% inhibition of T. gondii RH proliferation in vitro, Hs27 host cells, [3H]-uracil incorporation; for SR (selectivity ratio): ratio of CC50 (L929) to IC50 (T. gondii)

| Compound | chromatographic logP [1] | viability at 24 h, 5 µg/mL [2] [%] | viability at 24 h, 25 µg/mL [2] [%] | viability at 24 h, 50 µg/mL [2] [%] | viability at 24 h, 125 µg/mL [2] [%] | viability at 24 h, 250 µg/mL [2] [%] | viability at 24 h, 500 µg/mL [2] [%] | viability at 24 h, 1000 µg/mL [2] [%] | CC50 at 24 h [2] [µg/mL] | melting point [°C] | IC50 [3] [µg/mL] | SR (selectivity ratio) [3] |
| --- | --- | --- | --- | --- | --- | --- | --- | --- | --- | --- | --- | --- |
| Cc1nc[nH]c1C(=O)NNC(=S)Nc1ccccc1Br [Compound 11, 4-(2-Bromophenyl)-1-(4-methylimidazol-5-oyl)thiosemicarbazide] | 3.23 | 94.7 | 93 | 87.5 | 76.3 | 70 | 47.1 | 29.8 | 495 (≈ 1400 µM) | 205 to 207 | 27.6 (≈ 78.1 µM) | 17.91 |
| Cc1nc[nH]c1C(=O)NNC(=S)Nc1cccc(I)c1 [Compound 15, 4-(3-Iodophenyl)-1-(4-methylimidazol-5-oyl)thiosemicarbazide] | 3.98 | 96.7 | 87.3 | 70.8 | 66.2 | 54 | 8.53 | 8.49 | 197 (≈ 492 µM) | 210 to 212 | 10.3 (≈ 25.7 µM) | 19.16 |
| Cc1nc[nH]c1C(=O)NNC(=S)Nc1ccc(I)cc1 [Compound 16, 4-(4-Iodophenyl)-1-(4-methylimidazol-5-oyl)thiosemicarbazide] | 3.95 | 96.7 | 84.4 | 66.2 | 68.1 | 49.9 | 16.3 | 13.5 | 195 (≈ 486 µM) | 225 to 227 | 22 (≈ 54.9 µM) | 8.86 |
